US12173018B2, “Penicillin-binding protein inhibitors” (priority 2018, dated 2024)
Values after ≈ are worked out from the molar mass of the structure shown. Where two headings read alike, the source gives them in different places.

Key:
E. coli PBP3 = E. coli PBP3 (Escherichia coli (strain K12), UniProt P0AD68); test: E. coli PBP3 Bocillin-FL fluorescence polarization competition binding assay
Summary of the method: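 Steps: purified PBP (1.5 μM final) mixed with compound (0–1000 μM) in 50 mM Hepes pH 8.0, 300 mM NaCl, 5% glycerol; Bocillin-FL added to 0.1 μM; FP (ex 490, em 520 nm) followed for 60 min. Concentration reducing Bocillin-FL binding reported as EC50.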

[1] = system: E. coli DH5α empty pLBII vector control strain; test: microbe, parasite or virus in culture; assay type: cell-based, Escherichia coli; settings: Escherichia coli, read-out: Microbiological Activity (MIC in mg/L), E. coli DH5α/pLBII
Summary of the method: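 Broth microdilution in cation-supplemented Mueller-Hinton broth used a starting inoculum of 5×10^5 CFU/mL of E. coli DH5α carrying empty pLBII vector. Plates were incubated 16–20 h at 37 °C. MIC was read visually as the lowest concentration showing no growth.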

E. coli PBP4 = E. coli PBP4 (Escherichia coli (strain K12), UniProt P24228); test: E. coli PBP4 Bocillin-FL fluorescence polarization competition binding assay
From the text: To determine the ability of boronic acid-based test PBP inhibitors to bind Penicillin Binding Proteins (PBPs), Bocillin-FL (fluorescently-labeled penicillin V; ThermoFisher Scientific) was used in a fluorescence polarization (FP) competition binding assay to assess inhibitor binding to PBP2, PBP3 or PBP4 from Escherichia coli. PBPs were cloned and purified as described previously (King, D. T, et al., ACS Infectious Diseases 2015, 1, 175-184). To establish assay conditions for competition binding, an enzyme titration/saturation binding experiment was initially performed. Bocillin-FL was prepared at 0.2 μM in a buffer comprised of 50 mM Hepes (pH 8.0), 300 mM NaCl and 5% (v/v) glycerol. Saturation binding was performed by mixing 40 μl of PBP solutions ranging in concentrations from 0-12 μM with 40 μl of the 0.2 μM Bocillin-FL solution, in individual wells of a black 384-well microplate. FP was measured immediately upon mixing (Excitation, 490 nm; Emission, 520 nm; g-factor, 0.96), using a Cytation3 (BioTek) microplate reader and measured continuously for up to 120 minutes. […] Assays (80 μl final volume) were performed with PBPs at a final concentration of 1.5 μM, Bocillin-FL at 0.1 μM and beta-lactam concentrations that ranged from 0-1000 μM. […] Bocillin-FL was added and the FP immediately measured for 60 minutes (90 minutes for PBP2). The beta-lactam potency was reported as the concentration of beta-lactam required to reduce binding of Bocillin-FL by […] (EC50). […] Binding assays for boronic acid PBP inhibitors were performed in an identical fashion.

E. coli PBP1a = E. coli PBP1a (Escherichia coli (strain K12), UniProt P02918); test: Radioligand competition binding assay with 14C-labeled boronic acid probe, PBP1a
Summary of the method: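 Purified E. coli PBP1a (0.1 μM) preincubated 60 min with test boronic acid inhibitor in 20 mM Tris pH 7.5, 500 mM NaCl, 0.1% Triton X-100, then 60 min with 20 μM ^14C-labeled boronic acid probe. Bound probe recovered by spin desalting and counted by scintillation; EC50 reported.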

E. coli PBP2 = E. coli PBP2 (Escherichia coli (strain K12), UniProt P0AD65); test: E. coli PBP2 Bocillin-FL fluorescence polarization competition binding assay
Summary of the method: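 Fluorescence polarization competition with Bocillin-FL (0.1 μM final) and purified PBP2 (1.5 μM final) in 50 mM Hepes pH 8.0, 300 mM NaCl, 5% glycerol. FP (ex 490/em 520 nm) read for 90 min after Bocillin-FL addition; EC50 is the inhibitor concentration reducing Bocillin-FL binding by half.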

[2] = system: engineered strain of Escherichia coli harboring CTX-M15; test: microbe, parasite or virus in culture; assay type: cell-based; settings: Escherichia coli, read-out: Microbiological Activity (MIC in mg/L), E. coli DH5α/pLBII-CTX-M15, engineered strain producing CTX-M15
E. coli AG100 = test: Broth microdilution MIC, E. coli AG100 (wild-type parent); assay type: cell-based; settings: Escherichia coli; wild-type parent E. coli AG100, broth microdilution; read-out: MIC E. coli AG100
Summary of the method: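 Broth microdilution in cation-supplemented Mueller-Hinton broth, 2-fold serial compound dilutions, inoculum 5×10^5 CFU/mL from 3-5 h log culture.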

E. coli ATCC 25922 = test: Broth microdilution MIC, E. coli ATCC 25922; assay type: cell-based; settings: Escherichia coli, ATCC25922; E. coli ATCC 25922, broth microdilution; read-out: MIC E. coli 25922
Summary of the method: (§1)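 Visual MIC readout after 16-20 h at 37° C in CLSI-format microdilution. Compounds tested as 2-fold series against a 5×10^5 CFU/mL inoculum in cation-supplemented Mueller-Hinton broth.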

K. pneumoniae UMM = test: microbe, parasite or virus in culture; assay type: cell-based; settings: Klebsiella pneumoniae; K. pneumoniae UMM producing SHV-5 and KPC-2; read-out: MIC K. pneumoniae UMM
Summary of the method: as §1

E. coli 901C = test: microbe, parasite or virus in culture; assay type: cell-based; settings: Escherichia coli; hyper-permeable E. coli 901C, broth microdilution; read-out: MIC E. coli 901C
Summary of the method: as §1

E. coli AG100A = test: microbe, parasite or virus in culture; assay type: cell-based; settings: Escherichia coli, read-out: MIC E. coli AG100A
Summary of the method: as §1

`CCN1CCN(C(=O)NC(C(=O)N[C@H]2Cc3cc(C)cc(C(=O)O)c3OB2O)c2csc(N)n2)C(=O)C1=O` (stereo partly drawn) [Example 20, (3R)-3-(2-(2-aminothiazol-4-yl)-2-(4-ethyl-2,3-dioxopiperazine-1-carboxamido)acetamido)-2-hydroxy-6-methyl-3,4-dihydro-2H-benzo[e][1,2]oxaborinine-8-carboxylic acid] was tested, and the EC50 (E. coli PBP3) was 30 to 500 µM, the MIC [1] was 32 to 64 mg/L (≈ 58.8 to 118 µM) and the EC50 (E. coli PBP4; fluorescence polarization competition binding with Bocillin-FL, read-out: E. coli K12 PBP4 Potency (EC50)) was > 500 µM. For the same compound, the EC50 (E. coli PBP1a) was < 10 µM, the EC50 (E. coli PBP2; fluorescence polarization competition binding with Bocillin-FL, read-out: E. coli K12 PBP2 Potency (EC50)) was > 500 µM and the MIC [2] was 32 to 64 mg/L (≈ 58.8 to 118 µM).
Compound `CCN1CCN(C(=O)N[C@H](Cc2ccc(O)c(O)c2)C(=O)N[C@H]2Cc3cccc(C(=O)O)c3OB2O)C(=O)C1=O` [Example 40, (R)-3-((R)-3-(3,4-dihydroxyphenyl)-2-(4-ethyl-2,3-dioxopiperazine-1-carboxamido)propanamido)-2-hydroxy-3,4-dihydro-2H-benzo[e][1,2]oxaborinine-8-carboxylic acid] has an EC50 (E. coli PBP3) of 30 to 500 µM and an EC50 (E. coli PBP4) of 30 to 500 µM.
In the case of `CCN1CCN(C(=O)NC(C(=O)N[C@H]2Cc3cccc(C(=O)O)c3OB2O)c2ccc(O)cn2)C(=O)C1=O` (stereo partly drawn) [Example 89, (3R)-3-(2-(4-ethyl-2,3-dioxopiperazine-1-carboxamido)-2-(5-hydroxypyridin-2-yl)acetamido)-2-hydroxy-3,4-dihydro-2H-benzo[e][1,2]oxaborinine-8-carboxylic acid], the MIC (E. coli AG100) is reported as 32 to 64 µg/mL, the MIC (E. coli ATCC 25922) is reported as 8 to 16 µg/mL and the EC50 (E. coli PBP3; fluorescence polarization competition binding with Bocillin-FL, read-out: E. coli K12 PBP3 Potency) is reported as < 30 µM. The EC50 (E. coli PBP4) was 30 to 500 µM, the MIC (K. pneumoniae UMM) was 8 to 16 µg/mL and the MIC (E. coli 901C) was 0.5 to 1 µg/mL. For the same compound, the MIC (E. coli AG100A) was 2 to 4 µg/mL, the EC50 (E. coli PBP2) was 30 to 500 µM and the MIC [2] was 8 to 16 mg/L (≈ 15.2 to 30.5 µM).
With `C[C@@H](O)[C@H]1C(=O)N2C(C(=O)O)=C(S[C@@H]3CN[C@H](C(=O)N(C)C)C3)[C@H](C)[C@H]12` [meropenem, reference compound] the EC50 (E. coli PBP4; assay validation with beta-lactams, PBP 1.5 μM, Bocillin-FL 0.1 μM, read-out: EC50 with PBP4 (reduction of Bocillin-FL binding)) was < 2 µM.
